Test results reported in the NIST ThermoML archive (doi:10.1016/j.jct.2016.10.042).
Numbers after ± are expanded uncertainties.

What was measured:
[1] = 101 kPa, Liquid, Pycnometric method
[2] = xn = mol fraction of the nth substance listed; conditions: 101 kPa, Liquid, Pycnometric method, x1 = 1

**Q.** What does the source list for `C1CCOC1` [tetrahydrofuran]?
**A.** mass density ([1]; 293.15 K): 887.01 ± 1 kg/m3; mass density ([1]; 298.15 K): 882.05 ± 1 kg/m3; mass density ([1]; 303.15 K): 877.1 ± 1 kg/m3; mass density ([1]; 308.15 K): 872.14 ± 1 kg/m3; mass density ([1]; 313.15 K): 867.19 ± 1 kg/m3; mass density ([1]; 318.15 K): 862.23 ± 1 kg/m3

**Q.** Which mass density ([1]; 293.15 K) does the source give for `C=CC(=O)OC(C)(C)C` [tert-butyl acrylate] here?
**A.** The mass density was 884.13 ± 1 kg/m3.

**Q.** And the mass density ([1]; 298.15 K)?
**A.** Its mass density is 879.66 ± 1 kg/m3.

**Q.** And the mass density ([1]; 303.15 K)?
**A.** The mass density was 875.2 ± 1 kg/m3.

**Q.** What about the mass density ([1]; 308.15 K) of the same compound?
**A.** Its mass density is 870.74 ± 1 kg/m3.

**Q.** And the mass density ([1]; 313.15 K)?
**A.** Its mass density is 866.28 ± 1 kg/m3.

**Q.** And the mass density ([1]; 318.15 K)?
**A.** The mass density was 861.82 ± 1 kg/m3.

**Q.** With `C1CCOC1` [tetrahydrofuran] + C=CC(=O)OCCCC as the compound, how does the mass density ([2]; 293.15 K) read?
**A.** Its mass density is 887.01 ± 1 kg/m3.

**Q.** And the mass density ([2]; 298.15 K)?
**A.** Its mass density is 882.05 ± 1 kg/m3.

**Q.** What about the mass density ([2]; 303.15 K) of the same compound?
**A.** Its mass density is 877.1 ± 1 kg/m3.

**Q.** And the mass density ([2]; 308.15 K)?
**A.** The mass density was 872.14 ± 1 kg/m3.

**Q.** And the mass density ([2]; 313.15 K)?
**A.** The mass density was 867.19 ± 1 kg/m3.

**Q.** What about the mass density ([2]; 318.15 K) of the same compound?
**A.** Its mass density is 862.23 ± 1 kg/m3.

**Q.** With `C1CCOC1` [tetrahydrofuran] + C=CC(=O)OCC as the compound, how does the mass density ([2]; 293.15 K) read?
**A.** The mass density was 887.01 ± 1 kg/m3.

**Q.** And the mass density ([2]; 298.15 K)?
**A.** Its mass density is 882.05 ± 1 kg/m3.

**Q.** What about the mass density ([2]; 303.15 K) of the same compound?
**A.** Its mass density is 877.1 ± 1 kg/m3.

**Q.** And the mass density ([2]; 308.15 K)?
**A.** Its mass density is 872.14 ± 1 kg/m3.

**Q.** And the mass density ([2]; 313.15 K)?
**A.** Its mass density is 867.19 ± 1 kg/m3.

**Q.** And the mass density ([2]; 318.15 K)?
**A.** Its mass density is 862.23 ± 1 kg/m3.

**Q.** For `C1CCOC1` [tetrahydrofuran] + C=CC(=O)OC(C)(C)C, which mass density ([2]; 293.15 K) is on record?
**A.** Its mass density is 887.01 ± 1 kg/m3.

**Q.** And the mass density ([2]; 298.15 K)?
**A.** The mass density was 882.05 ± 1 kg/m3.

**Q.** What about the mass density ([2]; 303.15 K) of the same compound?
**A.** The mass density was 877.1 ± 1 kg/m3.

**Q.** What about the mass density ([2]; 308.15 K) of the same compound?
**A.** Its mass density is 872.14 ± 1 kg/m3.

**Q.** And the mass density ([2]; 313.15 K)?
**A.** The mass density was 867.19 ± 1 kg/m3.

**Q.** What about the mass density ([2]; 318.15 K) of the same compound?
**A.** Its mass density is 862.23 ± 1 kg/m3.

**Q.** With `C1CCOC1` [tetrahydrofuran] + C=CC(=O)OC as the compound, how does the mass density ([2]; 293.15 K) read?
**A.** Its mass density is 887.01 ± 1 kg/m3.

**Q.** And the mass density ([2]; 298.15 K)?
**A.** Its mass density is 882.05 ± 1 kg/m3.

**Q.** And the mass density ([2]; 303.15 K)?
**A.** The mass density was 877.1 ± 1 kg/m3.

**Q.** And the mass density ([2]; 308.15 K)?
**A.** Its mass density is 872.14 ± 1 kg/m3.

**Q.** And the mass density ([2]; 313.15 K)?
**A.** Its mass density is 867.19 ± 1 kg/m3.

**Q.** What about the mass density ([2]; 318.15 K) of the same compound?
**A.** The mass density was 862.23 ± 1 kg/m3.
